From BindingDB's records for doi:10.1016/j.bioorg.2016.07.006 (Dumlupinar University, 2016)

Columns and labels:
[1] = target: Carbonic anhydrase 1 (Homo sapiens, UniProt P00915); experiment: In vitro Carbonic Anhydrase Inhibition Assay
Procedure: (§1) CA activity was measured according to the method described by Verpoorte et al. in inhibition studies, spectrophotometrically [Biochem., 242:4221-4229]. The reaction mixture contains 50 mM Tris-SO4 buffer (pH = 7.4), 3 mM 4-nitrophenylacetate and enzyme solution in 1 ml total volume. A reference measurement was done by using the same cuvette without enzyme solution. The measurement was repeated in triplicate at each concentration of 5-amino-1,3,4-thiadiazole-2-sulfonamide containing pyrazole derivatives.

[2] = target: Carbonic anhydrase 2 (Homo sapiens, UniProt P00918); experiment: In vitro Carbonic Anhydrase Inhibition Assay
Procedure: as §1

Carbonic anhydrase 1, sequence (P00915 whole entry): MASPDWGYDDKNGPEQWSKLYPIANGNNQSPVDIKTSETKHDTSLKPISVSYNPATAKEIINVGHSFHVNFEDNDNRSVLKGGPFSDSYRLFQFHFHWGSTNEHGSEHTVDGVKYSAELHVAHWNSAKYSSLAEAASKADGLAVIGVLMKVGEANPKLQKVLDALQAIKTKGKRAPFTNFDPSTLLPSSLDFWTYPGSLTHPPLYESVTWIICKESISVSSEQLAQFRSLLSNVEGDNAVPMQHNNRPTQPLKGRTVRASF

NS(=O)(=O)c1nnc(NC(=O)c2nn(-c3cccc(NN=C(C(=O)c4ccccc4)C(=O)c4ccccc4)c3)c(-c3ccccc3)c2C(=O)Nc2nnc(S(N)(=O)=O)s2)s1 [1-(3-(2-(1,3-Dioxo-1,3-diphenylpropan-2-ylidene)hydrazinyl)phenyl)-5-phenyl-N3,N4-bis(5-sulfamoyl-1,3,4-thiadiazol-2-yl)-1Hpyrazole-3,4-dicarboxamide (8)]
Ki [1]: 4000 nM | Ki [2]: 878 nM

CC(=O)/C(=N/Nc1cccc(-n2nc(C(=O)Nc3nnc(S(N)(=O)=O)s3)c(C(=O)Nc3nnc(S(N)(=O)=O)s3)c2-c2ccccc2)c1)C(=O)c1ccccc1 [1-(3-(2-(1,3-Dioxo-1-phenylbutan-2-ylidene)hydrazinyl)phenyl)-5-phenyl-N3,N4-bis(5-sulfamoyl-1,3,4-thiadiazol-2-yl)-1H-pyrazole-3,4-dicarboxamide (6)]
Ki [1]: 119 nM | Ki [2]: 119 nM

CC(=O)C(=NNc1cccc(-n2nc(C(=O)Nc3nnc(S(N)(=O)=O)s3)c(C(=O)Nc3nnc(S(N)(=O)=O)s3)c2-c2ccccc2)c1)C(C)=O [1-(3-(2-(2,4-Dioxopentan-3-ylidene)hydrazinyl)phenyl)-5-phenyl-N3,N4-bis(5-sulfamoyl-1,3,4-thiadiazol-2-yl)-1H-pyrazole-3,4-dicarboxamide (5)]
Ki [1]: 767 nM | Ki [2]: 494 nM

CC1(C)CC(=O)C(=NNc2cccc(-n3nc(C(=O)Nc4nnc(S(N)(=O)=O)s4)c(C(=O)Nc4nnc(S(N)(=O)=O)s4)c3-c3ccccc3)c2)C(=O)C1 [1-(3-((2-Hydroxy-4,4-dimethyl-6-oxocyclohex-1-en-1-yl)diazenyl)phenyl)-5-phenyl-N3,N4-bis(5-sulfamoyl-1,3,4-thiadiazol-2-yl)-1H-pyrazole-3,4-dicarboxamide (14)]
Ki [1]: 787 nM | Ki [2]: 288 nM

NS(=O)(=O)c1nnc(NC(=O)c2nn(-c3cccc(NN=C4C(=O)CCCC4=O)c3)c(-c3ccccc3)c2C(=O)Nc2nnc(S(N)(=O)=O)s2)s1 [1-(3-((2-Hydroxy-6-oxocyclohex-1-en-1-yl)diazenyl)phenyl)-5-phenyl-N3,N4-bis(5-sulfamoyl-1,3,4-thiadiazol-2-yl)-1H-pyrazole-3,4-dicarboxamide (13)]
Ki [1]: 508 nM | Ki [2]: 157 nM

NS(=O)(=O)c1nnc(NC(=O)c2nn(-c3cccc(/N=N/c4c(O)ccc5ccccc45)c3)c(-c3ccccc3)c2C(=O)Nc2nnc(S(N)(=O)=O)s2)s1 [1-(3-((2-Hydroxynaphthalen-1-yl)diazenyl)phenyl)-5-phenyl-N3,N4-bis(5-sulfamoyl-1,3,4-thiadiazol-2-yl)-1H-pyrazole-3,4-dicarboxamide (4)]
Ki [1]: 1660 nM | Ki [2]: 411 nM

CCOC(=O)C(=NNc1cccc(-n2nc(C(=O)Nc3nnc(S(N)(=O)=O)s3)c(C(=O)Nc3nnc(S(N)(=O)=O)s3)c2-c2ccccc2)c1)C(=O)OCC [Diethyl 2-(2-(3-(5-phenyl-3,4-bis((5-sulfamoyl-1,3,4-thiadiazol-2-yl)carbamoyl)-1H-pyrazol-1-yl)phenyl)hydrazono)malonate (10)]
Ki [1]: 461 nM | Ki [2]: 203 nM

CCOC(=O)/C(=N\Nc1cccc(-n2nc(C(=O)Nc3nnc(S(N)(=O)=O)s3)c(C(=O)Nc3nnc(S(N)(=O)=O)s3)c2-c2ccccc2)c1)C(C)=O [Ethyl 3-oxo-2-(2-(3-(5-phenyl-3,4-bis((5-sulfamoyl-1,3,4-thiadiazol-2-yl)carbamoyl)-1H-pyrazol-1-yl)phenyl)hydrazono)butanoate (7)]
Ki [1]: 710 nM | Ki [2]: 208 nM

CCCC(=O)/C(=N/Nc1cccc(-n2nc(C(=O)Nc3nnc(S(N)(=O)=O)s3)c(C(=O)Nc3nnc(S(N)(=O)=O)s3)c2-c2ccccc2)c1)C(=O)OCC [Ethyl 3-oxo-2-(2-(3-(5-phenyl-3,4-bis((5-sulfamoyl-1,3,4-thiadiazol-2-yl)carbamoyl)-1H-pyrazol-1-yl)phenyl)hydrazono)hexanoate (11)]
Ki [1]: 246 nM | Ki [2]: 84 nM

CCOC(=O)/C(=N\Nc1cccc(-n2nc(C(=O)Nc3nnc(S(N)(=O)=O)s3)c(C(=O)Nc3nnc(S(N)(=O)=O)s3)c2-c2ccccc2)c1)C(=O)c1ccccc1 [Ethyl 3-oxo-3-phenyl-2-(2-(3-(5-phenyl-3,4-bis((5-sulfamoyl-1,3,4-thiadiazol-2-yl)carbamoyl)-1H-pyrazol-1-yl)phenyl)hydrazono)propanoate (9)]
Ki [1]: 487 nM | Ki [2]: 435 nM

COC(=O)C(/N=N/c1cccc(-n2nc(C(=O)Nc3nnc(S(N)(=O)=O)s3)c(C(=O)Nc3nnc(S(N)(=O)=O)s3)c2-c2ccccc2)c1)S(=O)(=O)c1ccccc1 (centres undefined) [Methyl 2-((3-(5-phenyl-3,4-bis((5-sulfamoyl-1,3,4-thiadiazol-2-yl)carbamoyl)-1H-pyrazol-1-yl)phenyl)diazenyl)-2-(phenylsulfonyl)acetate (15)]
Ki [1]: 318 nM | Ki [2]: 92 nM

CC(=O)/C(=N/Nc1cccc(-n2nc(C(=O)Nc3nnc(S(N)(=O)=O)s3)c(C(=O)Nc3nnc(S(N)(=O)=O)s3)c2-c2ccccc2)c1)C(=O)OC(C)(C)C [tert-Butyl 3-oxo-2-(2-(3-(5-phenyl-3,4-bis((5-sulfamoyl-1,3,4-thiadiazol-2-yl)carbamoyl)-1H-pyrazol-1-yl)phenyl)hydrazono)butanoate (12)]
Ki [1]: 522 nM | Ki [2]: 149 nM
